Results taken from patent US6995143B2, “Macrolides with antibacterial activity” (Basilea Pharmaceutica AG, priority 2002, dated 2006).
In brackets after ≈: the same amount, converted by molar mass.

Assays:
Type in all cases: cell-based
[1] = tested on: Escherichia coli ATCC 25922; assay: MIC, standard microdilution technique
In short: (§1)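 Antibacterial activity was determined by broth microdilution following the NCCLS approved standard M7-A5 (5th edition, 2000) for dilution susceptibility testing of aerobically growing bacteria.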

[2] = tested on: Staphylococcus aureus 1086; assay: MIC, standard microdilution technique
In short: as §1

[3] = tested on: Streptococcus pneumoniae ¼; assay: MIC, standard microdilution technique
In short: as §1

[4] = tested on: Streptococcus pneumoniae l/l; assay: MIC, standard microdilution technique
In short: as §1

[5] = tested on: Staphylococcus aureus 745; assay: MIC, standard microdilution technique
In short: as §1

[6] = tested on: Staphylococcus aureus ATCC 29213; assay: MIC, standard microdilution technique
In short: as §1

[7] = tested on: Streptococcus pneumoniae SL199T; assay: MIC, standard microdilution technique
In short: as §1

[8] = tested on: Streptococcus pneumoniae 12288; assay: MIC, standard microdilution technique
In short: as §1

[9] = tested on: Haemophilus influenzae QK50; assay: MIC, standard agar dilution method using HTM medium
In short: (§2)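 MICs were read following the NCCLS approved standard (M7-A5) for dilution susceptibility testing of aerobically growing bacteria. Compounds were tested against Haemophilus influenzae.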

[10] = tested on: Haemophilus influenzae 12214; assay: as above
In short: as §2

[11] = tested on: Haemophilus influenzae B1501; assay: as above
In short: as §2

[12] = tested on: Haemophilus influenzae QK12/87; assay: as above
In short: as §2

Row | minimum inhibitory concentration (MIC), Strain D [1] | minimum inhibitory concentration (MIC), Strain B [2] | minimum inhibitory concentration (MIC), Strain F [3] | minimum inhibitory concentration (MIC), Strain E [4] | minimum inhibitory concentration (MIC), Strain C [5] | minimum inhibitory concentration (MIC), Strain A [6] | minimum inhibitory concentration (MIC), Strain G [7] | minimum inhibitory concentration (MIC), Strain H [8] | minimum inhibitory concentration (MIC), Strain L [9] | minimum inhibitory concentration (MIC), Strain K [10] | minimum inhibitory concentration (MIC), Strain M [11] | minimum inhibitory concentration (MIC), Strain I [12] | Structure (SMILES) | also measured
1 | >32 µg/mL | 0.125 µg/mL (≈ 0.137 µM) | 8 µg/mL (≈ 8.79 µM) | <=0.06 μg/ml | >32 µg/mL | 0.125 µg/mL (≈ 0.137 µM) | 16 µg/mL (≈ 17.6 µM) | 32 µg/mL (≈ 35.2 µM) | 16 µg/mL (≈ 17.6 µM) | 16 µg/mL (≈ 17.6 µM) | 16 µg/mL (≈ 17.6 µM) | 32 µg/mL (≈ 35.2 µM) | CC[C@H]1OC(=O)[C@H](C)C(=O)[C@H](C)[C@@H](O[C@@H]2O[C@H](C)C[C@H](N(C)C)[C@H]2O)[C@](C)(OC)C[C@@H](C)C(=O)[C@H](C)[C@H]2[C@@H](SCCNS(=O)(=O)c3ccc(-c4ccccn4)s3)C(=O)O[C@@]21C (single isomer, unassigned) [Example 21] | 
2 | >32 µg/mL | 0.125 µg/mL (≈ 0.151 µM) | 0.125 µg/mL (≈ 0.151 µM) | <=0.06 μg/ml | >32 µg/mL | 0.125 µg/mL (≈ 0.151 µM) | 0.5 µg/mL (≈ 0.604 µM) | 4 µg/mL (≈ 4.83 µM) | 4 µg/mL (≈ 4.83 µM) | 4 µg/mL (≈ 4.83 µM) | 4 µg/mL (≈ 4.83 µM) | 4 µg/mL (≈ 4.83 µM) | CC[C@H]1OC(=O)[C@H](C)C(=O)[C@H](C)[C@@H](O[C@@H]2O[C@H](C)C[C@H](N(C)C)[C@H]2O)[C@](C)(OC)C[C@@H](C)C(=O)[C@H](C)[C@H]2[C@@H](SCC(=O)Nc3cccc4cnccc34)C(=O)O[C@@]21C [Example 40] | 
3 | >32 µg/mL | <=0.06 μg/ml | 4 µg/mL (≈ 4.83 µM) | <=0.06 μg/ml | >32 µg/mL | <=0.06 μg/ml | 8 µg/mL (≈ 9.66 µM) | 32 µg/mL (≈ 38.6 µM) | 16 µg/mL (≈ 19.3 µM) | 16 µg/mL (≈ 19.3 µM) | 8 µg/mL (≈ 9.66 µM) | 8 µg/mL (≈ 9.66 µM) | CC[C@H]1OC(=O)[C@H](C)C(=O)[C@H](C)[C@@H](O[C@@H]2O[C@H](C)C[C@H](N(C)C)[C@H]2O)[C@](C)(OC)C[C@@H](C)C(=O)[C@H](C)[C@H]2[C@@H](SCC(=O)Nc3ccc4ncccc4c3)C(=O)O[C@@]21C [Example 38] | 

Further lines, the molecule ahead of its results:

Row | Structure (SMILES) | minimum inhibitory concentration (MIC), Strain D [1] | minimum inhibitory concentration (MIC), Strain B [2] | minimum inhibitory concentration (MIC), Strain F [3] | minimum inhibitory concentration (MIC), Strain E [4] | minimum inhibitory concentration (MIC), Strain C [5] | minimum inhibitory concentration (MIC), Strain A [6] | minimum inhibitory concentration (MIC), Strain G [7] | minimum inhibitory concentration (MIC), Strain H [8] | minimum inhibitory concentration (MIC), Strain L [9] | minimum inhibitory concentration (MIC), Strain K [10] | minimum inhibitory concentration (MIC), Strain M [11] | minimum inhibitory concentration (MIC), Strain I [12] | also measured
4 | CC[C@H]1OC(=O)[C@H](C)C(=O)[C@H](C)[C@@H](O[C@@H]2O[C@H](C)C[C@H](N(C)C)[C@H]2O)[C@](C)(OC)C[C@@H](C)C(=O)[C@H](C)[C@H]2[C@@H](SCCNC(=O)c3cccnc3)C(=O)O[C@@]21C (single isomer, unassigned) [Example 19, (3R or S, 3aR, 4R or S, 6R, 8R, 9R, 10R, 12R, 15R, 15aS) -15-Ethyloctahydro-8-methoxy-4,6,8,10,12,15a-hexamethyl-3-[[2-[(3-pyridinylcarbonyl)amino]ethyl]thio]-9-[[-3,4,6-trideoxy-3-(dimethylamino)-β-D-xylo-hexopyranosyl]oxy]-2H-furo [2,3-c] oxacyclotetradecin-2,5,11,13 (3H,6H,12H)-tetrone] |  |  |  |  |  |  |  |  |  |  |  |  | MIC ([1]; ATCC25922, read-out: minimum inhibitory concentration (MIC), Strain D): > 32 µg/mL; MIC ([2]; read-out: minimum inhibitory concentration (MIC), Strain B): 0.25 µg/mL (≈ 0.316 µM); MIC ([3]; read-out: minimum inhibitory concentration (MIC), Strain F): 2 µg/mL (≈ 2.53 µM); MIC ([4]; read-out: minimum inhibitory concentration (MIC), Strain E): 0.125 µg/mL (≈ 0.158 µM); MIC ([5]; read-out: minimum inhibitory concentration (MIC), Strain C): > 32 µg/mL; MIC ([6]; ATCC29213, read-out: minimum inhibitory concentration (MIC), Strain A): 0.25 µg/mL (≈ 0.316 µM); MIC ([7]; read-out: minimum inhibitory concentration (MIC), Strain G): 32 µg/mL (≈ 40.4 µM); MIC ([8]; read-out: minimum inhibitory concentration (MIC), Strain H): > 32 µg/mL; MIC ([9]; read-out: minimum inhibitory concentration (MIC), Strain L): 8 µg/mL (≈ 10.1 µM); MIC ([10]; read-out: minimum inhibitory concentration (MIC), Strain K): 4 µg/mL (≈ 5.05 µM); MIC ([11]; read-out: minimum inhibitory concentration (MIC), Strain M): 4 µg/mL (≈ 5.05 µM); MIC ([12]; read-out: minimum inhibitory concentration (MIC), Strain I): 4 µg/mL (≈ 5.05 µM)
5 | CC[C@H]1OC(=O)[C@H](C)C(=O)[C@H](C)[C@@H](O[C@@H]2O[C@H](C)C[C@H](N(C)C)[C@H]2O)[C@](C)(OC)C[C@@H](C)C(=O)[C@H](C)[C@H]2[C@@H](SCC(=O)c3ccc(N(CC)CC)cc3)C(=O)O[C@@]21C [Example 17] | >32 µg/mL | 8 µg/mL (≈ 9.6 µM) | >32 µg/mL | 1 µg/mL (≈ 1.2 µM) | >32 µg/mL | 16 µg/mL (≈ 19.2 µM) | >32 µg/mL | >32 µg/mL | >32 µg/mL | >32 µg/mL | >32 µg/mL | >32 µg/mL | 
6 | CC[C@H]1OC(=O)[C@H](C)C(=O)[C@H](C)[C@@H](O[C@@H]2O[C@H](C)C[C@H](N(C)C)[C@H]2O)[C@](C)(OC)C[C@@H](C)C(=O)[C@H](C)[C@H]2[C@@H](SCCNC(=O)c3ccc4ncccc4c3)C(=O)O[C@@]21C (single isomer, unassigned) [Example 47] | >32 µg/mL | <=0.06 μg/ml | <=0.06 μg/ml | <=0.06 μg/ml | >32 µg/mL | 0.125 µg/mL (≈ 0.148 µM) | 8 µg/mL (≈ 9.5 µM) | >32 µg/mL | 4 µg/mL (≈ 4.75 µM) | 8 µg/mL (≈ 9.5 µM) | 2 µg/mL (≈ 2.38 µM) | 4 µg/mL (≈ 4.75 µM) | 
7 | CC[C@H]1OC(=O)[C@H](C)C(=O)[C@H](C)[C@@H](O[C@@H]2O[C@H](C)C[C@H](N(C)C)[C@H]2O)[C@](C)(OC)C[C@@H](C)C(=O)[C@H](C)[C@H]2[C@@H](SCC(=O)c3ccc(OC)cc3OC)C(=O)O[C@@]21C [Example 45] | >32 µg/mL | 0.25 µg/mL (≈ 0.304 µM) | 0.5 µg/mL (≈ 0.608 µM) | <=0.06 μg/ml | >32 µg/mL | 0.25 µg/mL (≈ 0.304 µM) | 16 µg/mL (≈ 19.5 µM) | >32 µg/mL | 8 µg/mL (≈ 9.73 µM) | 8 µg/mL (≈ 9.73 µM) | 4 µg/mL (≈ 4.87 µM) | 8 µg/mL (≈ 9.73 µM) | 
8 | CC[C@H]1OC(=O)[C@H](C)C(=O)[C@H](C)[C@@H](O[C@@H]2O[C@H](C)C[C@H](N(C)C)[C@H]2O)[C@](C)(OC)C[C@@H](C)C(=O)[C@H](C)[C@H]2[C@@H](SCC(=O)Nc3ccc(C)c(C)c3)C(=O)O[C@@]21C [Example 55] | >32 µg/mL | 0.125 µg/mL (≈ 0.155 µM) | <=0.06 μg/ml | <=0.06 μg/ml | >32 µg/mL | 0.25 µg/mL (≈ 0.311 µM) | 0.25 µg/mL (≈ 0.311 µM) | 2 µg/mL (≈ 2.48 µM) | 16 µg/mL (≈ 19.9 µM) | 8 µg/mL (≈ 9.94 µM) | 8 µg/mL (≈ 9.94 µM) | 8 µg/mL (≈ 9.94 µM) | 
9 | CC[C@H]1OC(=O)[C@H](C)C(=O)[C@H](C)[C@@H](O[C@@H]2O[C@H](C)C[C@H](N(C)C)[C@H]2O)[C@](C)(OC)C[C@@H](C)C(=O)[C@H](C)[C@H]2[C@@H](S(=O)(=O)CCNC(=O)c3ccc4nonc4c3)C(=O)O[C@@]21C [Example 44] | >32 µg/mL | 0.125 µg/mL (≈ 0.145 µM) | <=0.06 μg/ml | <=0.06 μg/ml | >32 µg/mL | 0.5 µg/mL (≈ 0.578 µM) | 16 µg/mL (≈ 18.5 µM) | >32 µg/mL | 16 µg/mL (≈ 18.5 µM) | 16 µg/mL (≈ 18.5 µM) | 8 µg/mL (≈ 9.25 µM) | 16 µg/mL (≈ 18.5 µM) | 
